# Assay results: EP0594877A1, “Imidazo(1,2-c)quinazoline derivates as antihyper tensives and anti dysurics” (NATIONAL SCIENCE COUNCIL, priority 1992, dated 1994)
# Columns and labels:
# [1] = Antihypertensive activity: blood pressure and heart rate in anesthetized cats after i.v. administration; format: in vivo; settings: for MBP (mm Hg) 1 hour / MBP (mm Hg) 2 hour: anesthetized cats
# Description: (§1) Adult cats of either sex, 2-3 Kg, anesthetized with pentobarbital sodium (30 mg/Kg i.p.) were used. The trachea was intubated to provide artificial respiration with air by means of a Harvard respirator (respiration rate= 16-20/min and colume= 40-50 ml/stroke). Both femoral artery and vein were cannulated with PE 150 to monitor blood pressure and for drug administration respectively. Body temperature was maintained at 37.5°C with a heating pad and monitored with a rectal thermometer. Blood pressure was measured with a Statham P23D pressure transducer via a polyethylene cannula conducted to a right femoral artery. Heart rate was measured through a Grass Model 7B tachograph preamplifier triggered by the pulses of arterial blood pressure. All data were recorded on a Grass Model 7B polygraph.
# The solvent (50% DM50) has no significant action on B.P. or H.R. However, Example 4 compound (250 µg/Kg) decreases B.P. immediately and reaches maximally at 5-10 minutes, and the duration of action is about 4 hours.
# [2] = molecular target: α₂-adrenergic receptor; experiment: α₂-adrenergic receptor binding assay with [³H] clonidine, rat brain cortex membranes; settings: for Ki: 1 nM [³H] clonidine, 10 mM MgCl₂, rat brain cortex membranes, pH 7.4; for α₂/α₁ ratio: ratio of α₂ Ki to α₁ Ki
# Description: (§2) After the removal of nuclei by centrifugation at 1000 x g for 10 min, P₂ membranes were pelleted by centrifuging the supernatant at 22,000 x g for 20 min. After two periods of centrifugation at 22,000 x g and resuspension in fresh buffer, the membrane suspension (about 2 mg/ml protein) was ready for use.
# (§3) α₁-Adrenergic receptor binding assays (in triplicate) were carried out with 0.2 nM [³H] prazocin in a final volume of 1.0 ml of Tris buffer at pH 7.4 for 30 min at room temperature, using 10 µM phentolamine to determine non-specific binding. The concentrations of synthetic compounds for competition binding were in the range of 0.1 - 200 nM. α₂-adrenergic receptor binding assays (in triplicate) were carried out with 1 nM [³H] clonidine in the presence of 10 mM MgCl₂ and in a final volume of 1.0 ml of Tris buffer at pH 7.4 for 30 min at room temperature, using 10 µM clonidine to determine non-specific binding. The concentrations of synthetic compounds for competition binding were in the range of 0.1-100 µM. After binding had reached equilibrium, incubations were terminated by collecting the membranes on whatman GF/B filters; the filters were washed twice with 5 ml of 50 mM Tris buffer (pH 7.4) at 4°C. The amount of membrane protein used in each assay was in the range of 300-400 µg, as determined by the method of Lowry et al..
# [3] = molecular target: α₁-Adrenergic receptor; experiment: α₁-Adrenergic receptor binding assay with [³H] prazocin, rat brain cortex membranes; settings: 0.2 nM [³H] prazocin, pH 7.4
# Description: as §2, §3
# [4] = Antagonistic effect on blood pressure responses induced by phenylephrine or serotonin in cats; format: in vivo; settings: cats pretreated with dose of ED₅₀ (0.25mg/kg)
# Description: • Fig. 1 is a does-response plot of 2-(4-phenyl-1-piperazinyl)methyl-2,3-dihydroimidazo[1,2-c]-quinazoline-5(6H)-one (Example 4) on blood pressure in 5 cats; • Fig. 2 is a time-course of various doeses of Example 4 compound on blood pressure in cats; and • Fig. 3 is a plot showing antagonistic effect of Example 4 compound (0.25mg/kg) on blood pressures induced by phenylephrine (0.015mg/kg) or serotonin (0.020mg/kg).
# as §1
# [5] = cats, i.v., 10 µg to 1 mg/kg, dose-dependent
Molecule,MBP (mm Hg) 1 hour ([1]; dose 4.0 mg/Kg) [mm Hg],Ki [2] [nM],α₂/α₁ ratio [2],Ki [3] [nM],also measured
"COc1cccc(N2CCN(CC3CN4C(=O)Nc5ccccc5C4=N3)CC2)c1 (centres unmarked) [Example 17, 2-[1-(3-methoxyphenyl)piperazinyl]methyl-2,3-dihydroimidazo[1,2-c]quinazolin-5(6H)-one]",-20.3±10.2,,,,MBP (mm Hg) 2 hour ([1]; dose 4.0 mg/Kg): -8.5±2.6 mm Hg
"O=C1Nc2ccccc2C2=NC(CN3CCC(Cc4ccccc4)CC3)CN12 (centres unmarked) [Example 9, 2-[4-Benzyl-1-piperidinyl]methyl-2,3-dihydroimidazo[1,2-c]quinazolin-5(6H)-one]",-30.6±4.7,5011 ± 11,140,35.8 ± 8.6,
"COc1ccccc1N1CCN(CC2CN3C(=O)Nc4ccccc4C3=N2)CC1 (centres unmarked) [Example 7, 2-[4-(2-methoxy)phenyl-1-piperazinyl]methyl-2,3-dihydroimidazo[1,2-c]quinazolin-5(6H)-one]",,3450 ± 329,2654,1.3 ± 0.5,MBP (mm Hg) 1 hour ([1]; dose 0.25 mg/Kg): -17.5 mm Hg; MBP (mm Hg) 1 hour ([1]; dose 0.5 mg/Kg): -20 mm Hg; MBP (mm Hg) 2 hour ([1]; dose 0.5 mg/Kg): -18.8 mm Hg; MBP (mm Hg) 1 hour ([1]; dose 1.0 mg/Kg): -30 mm Hg; MBP (mm Hg) 2 hour ([1]; dose 1.0 mg/Kg): -15 mm Hg
"COc1ccc(N2CCN(CC3CN4C(=O)Nc5ccccc5C4=N3)CC2)cc1 (centres unmarked) [Example 16, 2-[1-(4-methoxyphenyl)piperazinyl]methyl-2,3-dihydroimidazo[1,2-c]quinazolin-5(6H)-one]",,,,> 100,
"O=C1Nc2ccccc2C2=NC(CN3CCN(c4ccccc4)CC3)CN12 (centres unmarked) [Example 4, 2-(4-phenyl-1-piperazinyl)methyl-2,3-dihydroimidazo[1,2-c]quinazolin-5(6H)-one]",,,,2.01 ± 0.09,"ED50 ([1]; Felis catus, iv, cats, i.v., read-out: ED₅₀ of lowing blood pressure): 0.25 mg/kg; time at which decrease of B.P. reaches maximally ([1]; anesthetized cat, 250 µg/Kg i.v.): 5 to 10 min; MBP (mm Hg) 1 hour ([1]; dose 0.125 mg/Kg): -12.5±4.6 mm Hg; MBP (mm Hg) 1 hour ([1]; dose 0.25 mg/Kg): -23.1±2.7 mm Hg; MBP (mm Hg) 2 hour ([1]; dose 0.25 mg/Kg): -8.75±5.7 mm Hg; MBP (mm Hg) 1 hour ([1]; dose 0.5 mg/Kg): -49.3±1.5 mm Hg; MBP (mm Hg) 2 hour ([1]; dose 0.5 mg/Kg): -32.5±2.5 mm Hg; MBP (mm Hg) 1 hour ([1]; dose 1.0 mg/Kg): -57.5±2.5 mm Hg; MBP (mm Hg) 2 hour ([1]; dose 1.0 mg/Kg): -44.5±0.5 mm Hg; changes in heart rate (HR) [1, 5]: biphasically (initially increases, then decreases); effect on SBP and DBP [1, 5]: decreases both SBP and DBP; blood pressure response to PE ([4]; phenylephrine 0.015mg/kg, p<0.02): significantly antagonizes; blood pressure response to 5-HT ([4]; serotonin 0.020mg/kg, p>0.05): no effect"
"O=C1Nc2ccccc2C2=NC(CN3CCN(Cc4ccc5c(c4)OCO5)CC3)CN12 (centres unmarked) [Example 6, 2-[4-piperonyl-1-piperazinyl]methyl-2,3-dihydroimidazo[1,2-c]quinazolin-5(6H)-one]",,,,> 100,
"2-(4-phenyl-1-piperazinyl)methyl-2,3-dihydroimidazo[1,2-c]quinazolin-5(6H)-thione [Example 20]",-33.9±9.7,,,,MBP (mm Hg) 2 hour ([1]; dose 4.0 mg/Kg): -22.5±7.6 mm Hg
"CN1C(=O)N2CC(CN3CCN(c4ccccc4Cl)CC3)N=C2c2ccccc21 (centres unmarked) [Example 28, 2-[4-(2-chlorophenyl)-1-piperazinyl]methyl-6-methyl-2,3-dihydroimidazo[1,2-c]quinazolin-5-one]",,,,0.68 ± 0.26,
"O=C1Nc2ccccc2C2=NC(CN3CCN(c4ccccc4Cl)CC3)CN12 (centres unmarked) [Example 26, 2-[4-(2-chlorophenyl)-1-piperazinyl]methyl-2,3-dihydroimidazo[1,2-c]quinazolin-5(6H)-one]",,3170 ± 396,3015,1.1 ± 0.05,MBP (mm Hg) 1 hour ([1]; dose 0.5 mg/Kg): -25.5±3.4 mm Hg; MBP (mm Hg) 2 hour ([1]; dose 0.5 mg/Kg): -5.7±1.5 mm Hg; MBP (mm Hg) 1 hour ([1]; dose 1.0 mg/Kg): -40.7±9.7 mm Hg; MBP (mm Hg) 2 hour ([1]; dose 1.0 mg/Kg): -12.6±3.4 mm Hg
"2-[4-(4-fluorobenzyl)-1-piperazinyl]methyl-2,3-dihydroimidazo[1,2-c]quinazolin-5(6H)-one [Example 11]",,391,27,14.4,
"COc1cc2c(cc1OC)C1=NC(CN3CCN(c4ccccc4)CC3)CN1C(=O)N2 (centres unmarked) [Example 25, 2-(4-phenyl-1-piperazinyl)methyl-8,9-dimethoxy-2,3-dihydro-imidazo[1,2-c]quinazolin-5(6H)-one]",-38.2±5.7,1690,54,30 ± 10,MBP (mm Hg) 2 hour ([1]; dose 4.0 mg/Kg): -12.6±5.0 mm Hg
"O=C1Nc2ccccc2C2=NC(CN3CCN(c4ccccn4)CC3)CN12 (centres unmarked) [Example 10, 2-[4-(2-Pyridinyl)-1-piperazinyl]methyl-2,3-dihydroimidazo[1,2-c]quinazolin-5(6H)-one]",,,,95.9 ± 5.2,
"O=C(c1ccc(F)cc1)C1CCN(CC2CN3C(=O)Nc4ccccc4C3=N2)CC1 (centres unmarked) [Example 15, 2-[1-(4-p-fluorobenzoyl)piperidinyl]methyl-2,3-dihydroimidazo[1,2-c]quinazolin-5(6H)-one]",-30 ±7.3,,,,MBP (mm Hg) 2 hour ([1]; dose 4.0 mg/Kg): -13.8±8.9 mm Hg
"O=C1Nc2ccccc2C2=NC(CNC3CCN(Cc4ccccc4)CC3)CN12 (centres unmarked) [Example 12, 2-[1-benzylpiperidin-4-yl]aminomethyl-2,3-dihydroimidazo[1,2-c]quinazolin-5(6H)-one]",,,,586 ± 9,
"O=C1Nc2ccccc2C2=NC(CN3CCN(Cc4ccccc4)CC3)CN12 (centres unmarked) [Example 8, 2-[4-Benzyl-1-piperazinyl]methyl-2,3-dihydroimidazo[1,2-c]quinazolin-5(6H)-one]",-43.7±5.2,> 10000,>11,850,
